# In patent US4012576A, “Antibiotic complex Bu 2183” (priority 1975, dated 1977):
# Read-outs that look alike come from different tables or passages of the source.
# Key:
# Format in all cases: cell-based
# [1] = test system: K. pneumoniae D11; experiment: MIC, two-fold agar dilution on Nutrient Agar; settings: Klebsiella pneumoniae, read-out: MIC
# Method: (§1) The minimum inhibitory concentrations (MIC) of Bu-2183 A and B were determined against a wide variety of bacteria by the two-fold agar dilution method on Nutrient Agar plates. The inocula-replicating device of Steers et al. was used. Inoculum size was adjusted to be 10^4 dilution of overnight culture of the test organisms in Heart Infusion Broth (Difco). The results are shown in Table 6 along with those of kanamycin which was comparatively tested as a reference antibiotic.
# [2] = test system: Pr. vulgaris A9436; experiment: MIC, two-fold agar dilution on Nutrient Agar; settings: Proteus vulgaris, read-out: MIC
# Method: as §1
# [3] = test system: Ps. aeruginosa A20601; experiment: MIC, two-fold agar dilution on Nutrient Agar; settings: Pseudomonas aeruginosa, read-out: MIC
# Method: as §1
# [4] = test system: E. coli NIHJ; experiment: MIC, two-fold agar dilution on Nutrient Agar; settings: Escherichia coli, read-out: MIC
# Method: as §1
# [5] = test system: Ps. aeruginosa A20653; experiment: MIC, two-fold agar dilution on Nutrient Agar; settings: Pseudomonas aeruginosa, read-out: MIC
# Method: as §1
# [6] = test system: E. coli NR 79/W677; experiment: MIC, two-fold agar dilution on Nutrient Agar; settings: Escherichia coli
# Method: as §1
# [7] = test system: E. coli A20732; experiment: MIC, two-fold agar dilution on Nutrient Agar
# Method: as §1
# [8] = test system: Ser. marcescens A21247; experiment: MIC, two-fold agar dilution on Nutrient Agar; settings: Serratia marcescens, read-out: MIC
# Method: as §1
# [9] = test system: E. coli JR 66/W677; experiment: MIC, two-fold agar dilution on Nutrient Agar; settings: Escherichia coli
# Method: as §1
# [10] = test system: E. coli R 5; experiment: MIC, two-fold agar dilution on Nutrient Agar; settings: Escherichia coli
# Method: as §1
# [11] = test system: E. coli JR 35/C600; experiment: MIC, two-fold agar dilution on Nutrient Agar
# Method: as §1
# [12] = test system: E. coli A20107; experiment: MIC, two-fold agar dilution on Nutrient Agar; settings: Escherichia coli, read-out: MIC
# Method: as §1
# [13] = test system: Ps. aeruginosa A9930; experiment: MIC, two-fold agar dilution on Nutrient Agar
# Method: as §1
# [14] = test system: Ser. marcescens A20019; experiment: MIC, two-fold agar dilution on Nutrient Agar
# Method: as §1
# [15] = test system: E. coli, K. pneumoniae, Ps. aeruginosa, S. aureus, B. subtilis; experiment: Effect of media pH on MIC (overall); settings: Nutrient Agar, pH 6.0-9.0
# Description: (§2) Effect of media pH on the MIC of Bu-2183 A was studied by two-fold agar dilution method using Nutrient Agar Medium at pH 6.0, 7.0, 8.0 and 9.0.
# [16] = test system: B. subtilis PCI 219; experiment: Effect of media pH on MIC, two-fold agar dilution; settings: Bacillus subtilis, PCI219, Table 8, Nutrient Agar
# Description: as §2
# [17] = test system: S. aureus Smith; experiment: Effect of media pH on MIC, two-fold agar dilution; settings: Staphylococcus aureus, Table 8, Nutrient Agar
# Description: as §2
# [18] = test system: E. coli NIHJ; experiment: Effect of media pH on MIC, two-fold agar dilution; settings: Escherichia coli, Table 8, Nutrient Agar
# Description: as §2
# [19] = test system: Ps. aeruginosa D 15; experiment: Effect of media pH on MIC, two-fold agar dilution; settings: Pseudomonas aeruginosa, D15, Table 8, Nutrient Agar
# Description: as §2
# [20] = test system: K. pneumoniae D 11; experiment: Effect of media pH on MIC, two-fold agar dilution; settings: Klebsiella pneumoniae, D11, Table 8, Nutrient Agar
# Description: as §2
# [21] = Escherichia coli, A20732, Table 6, Ec-72, read-out: MIC
# [22] = Pseudomonas aeruginosa, A9930, Table 6, Pa-3, read-out: MIC
# [23] = Serratia marcescens, A20019, Table 6, Sm-1, read-out: MIC
smiles,measurement,setting,value
CC(=O)NC1C(CO)OC(OC(C(O)CN)C(N)C(O)CO)C(O)C1O (stereo not drawn) [Bu-2183 B],MIC,"[1]; D11, Table 6, Kp-1",12.5 µg/mL
same,MIC,"[2]; A9436, Table 6, Pv-1",50 µg/mL
same,MIC,"[3]; A20601, Table 6, Pa-21",50 µg/mL
same,MIC,"[4]; Table 6, Ec-1",50 µg/mL
same,MIC,"[5]; A20653, Table 6, Pa-12",100 µg/mL
same,MIC,"[6]; NR79/W677, Table 6, Ec-9",100 µg/mL
same,MIC,[7]; [21],25 µg/mL
same,MIC,"[8]; A21247, Table 6, Sm-16",> 100 µg/mL
same,MIC,"[9]; JR66/W677, Table 6, Ec-53",25 µg/mL
same,MIC,"[10]; R5, Table 6, Ec-55",100 µg/mL
same,MIC,"[11]; Escherichia coli, JR35/C600",12.5 µg/mL
same,MIC,"[12]; A20107, Table 6, Ec-49",50 µg/mL
same,MIC,[13]; [22],25 µg/mL
same,MIC,[14]; [23],> 100 µg/mL
CCC(=O)NC1C(CO)OC(OC(C(O)CN)C(N)C(O)CO)C(O)C1O (stereo not drawn) [Bu-2183 A],effect of media pH on activity,[15],increased at alkaline pH and decreased at acidic pH
same,MIC,"[1]; D11, Table 6, Kp-1",3.1 µg/mL
same,MIC,"[1]; D11, Table 7, Kp-1",6.3 µg/mL
same,MIC,"[2]; A9436, Table 6, Pv-1",12.5 µg/mL
same,MIC,"[2]; A9436, Table 7, Pv-1",25 µg/mL
same,MIC,"[3]; A20601, Table 6, Pa-21",25 µg/mL
same,MIC,"[3]; A20601, Table 7, Pa-21",50 µg/mL
same,MIC,"[4]; Table 6, Ec-1",12.5 µg/mL
same,MIC,"[4]; Table 7, Ec-1",25 µg/mL
same,MIC,"[5]; A20653, Table 6, Pa-12",25 µg/mL
same,MIC,"[5]; A20653, Table 7, Pa-12",50 µg/mL
same,MIC,"[6]; NR79/W677, Table 6, Ec-9",25 µg/mL
same,MIC,"[6]; NR79/W677, Table 7, Ec-9",12.5 µg/mL
same,MIC,[7]; [21],12.5 µg/mL
same,MIC,"[7]; Table 7, Ec-72",12.5 µg/mL
same,MIC,"[8]; A21247, Table 6, Sm-16",100 µg/mL
same,MIC,"[8]; A21247, Table 7, Sm-16",> 100 µg/mL
same,MIC,"[9]; JR66/W677, Table 6, Ec-53",6.3 µg/mL
same,MIC,"[9]; JR66/W677, Table 7, Ec-53",25 µg/mL
same,MIC,"[10]; R5, Table 6, Ec-55",25 µg/mL
same,MIC,"[10]; R5, Table 7, Ec-55",6.3 µg/mL
same,MIC,"[11]; Escherichia coli, JR35/C600",6.3 µg/mL
same,MIC,"[11]; Table 7, Ec-10",6.3 µg/mL
same,MIC,"[12]; A20107, Table 6, Ec-49",12.5 µg/mL
same,MIC,"[12]; A20107, Table 7, Ec-49",25 µg/mL
same,MIC,[13]; [22],12.5 µg/mL
same,MIC,"[13]; Table 7, Pa-3",12.5 µg/mL
same,MIC,[14]; [23],> 100 µg/mL
same,MIC,"[14]; Table 7, Sm-1",> 100 µg/mL
same,MIC,[16]; pH 6,50 µg/mL
same,MIC,[16]; pH 7,6.3 µg/mL
same,MIC,[16]; pH 8,6.3 µg/mL
same,MIC,[16]; pH 9,6.3 µg/mL
same,MIC,[17]; pH 6,> 50 µg/mL
same,MIC,[17]; pH 7,50 µg/mL
same,MIC,[17]; pH 8,50 µg/mL
same,MIC,[17]; pH 9,50 µg/mL
same,MIC,[18]; pH 6,> 50 µg/mL
same,MIC,[18]; pH 7,50 µg/mL
same,MIC,[18]; pH 8,25 µg/mL
same,MIC,[18]; pH 9,12.5 µg/mL
same,MIC,[19]; pH 6,> 50 µg/mL
same,MIC,[19]; pH 7,50 µg/mL
same,MIC,[19]; pH 8,25 µg/mL
same,MIC,[19]; pH 9,12.5 µg/mL
same,MIC,[20]; pH 6,12.5 µg/mL
same,MIC,[20]; pH 7,12.5 µg/mL
same,MIC,[20]; pH 8,12.5 µg/mL
same,MIC,[20]; pH 9,3.1 µg/mL
